Laboratory results reported in patent US20170190671A1, “BIS(ARYL)CATECHOL DERIVATIVES AS HERBICIDES” (E I DU PONT DE NEMOURS AND COMPANY, priority 2014, published 2017).

Experiments:
Format in all cases: in vivo
[1] = system: Italian ryegrass (Lolium multiflorum); test: Test A preemergence
Text: (§1) Seeds of plant species selected from barnyardgrass (Echinochloa crus-galli), kochia (Kochia scoparia), ragweed (common ragweed, Ambrosia elatior), Italian ryegrass (Lolium multiflorum), large (Lg) crabgrass (Digitaria sanguinalis), giant foxtail (Setaria faberii), morningglory (Ipomoea spp.), pigweed (Amaranthus retroflexus), velvetleaf (Abutilon theophrasti), wheat (Triticum aestivum), and corn (Zea mays) were planted into a blend of loam soil and sand and treated preemergence with a directed soil spray using test chemicals formulated in a non-phytotoxic solvent mixture which included a surfactant.
(§2) At the same time, plants selected from these crop and weed species and also blackgrass (Alopecurus myosuroides), and galium (catchweed bedstraw, Galium aparine) were planted in pots containing the same blend of loam soil and sand and treated with postemergence applications of test chemicals formulated in the same manner. Plants ranged in height from 2 to 10 cm and were in the one- to two-leaf stage for the postemergence treatment. Treated plants and untreated controls were maintained in a greenhouse for approximately 10 days, after which time all treated plants were compared to untreated controls and visually evaluated for injury. Plant response ratings, summarized in Table A, are based on a 0 to 100 scale where 0 is no effect and 100 is complete control. A dash (-) response means no test result.

[2] = system: barnyardgrass (Echinochloa crus-galli); test: Test A preemergence
Text: as §1, §2

[3] = system: ragweed (common ragweed, Ambrosia elatior); test: Test A preemergence
Text: as §1, §2

[4] = system: giant foxtail (Setaria faberii); test: Test A preemergence
Text: as §1, §2

[5] = system: pigweed (Amaranthus retroflexus); test: Test A preemergence
Text: as §1, §2

kochia (Kochia scoparia) [6] = test: Test A preemergence
Text: as §1, §2

[7] = system: galium (catchweed bedstraw, Galium aparine); test: Test A postemergence; details: 0 to 100 scale
Text: as §1, §2

[8] = system: wheat (Triticum aestivum); test: Test A postemergence; details: 0 to 100 scale
Text: as §1, §2

corn (Zea mays) = test: Test A postemergence; details: 0 to 100 scale
Text: as §1, §2

[9] = system: Italian ryegrass (Lolium multiflorum); test: Test A postemergence; details: 0 to 100 scale
Text: as §1, §2

[10] = system: barnyardgrass (Echinochloa crus-galli); test: Test A postemergence; details: 0 to 100 scale
Text: as §1, §2

[11] = system: ragweed (common ragweed, Ambrosia elatior); test: Test A postemergence; details: 0 to 100 scale
Text: as §1, §2

[12] = system: giant foxtail (Setaria faberii); test: Test A postemergence; details: 0 to 100 scale
Text: as §1, §2

[13] = system: pigweed (Amaranthus retroflexus); test: Test A postemergence; details: 0 to 100 scale
Text: as §1, §2

[14] = system: blackgrass (Alopecurus myosuroides); test: Test A postemergence; details: 0 to 100 scale
Text: as §1, §2

kochia (Kochia scoparia) [15] = test: Test A postemergence; details: 0 to 100 scale
Text: as §1, §2

[16] = 31 g ai/ha, 0 to 100 scale (0 no effect, 100 complete control)

FC(F)(F)c1cnc(Oc2c(Br)cccc2Oc2ncc(Cl)cn2)s1 [Compound 6]
80: Plant response rating, Kochia (kochia (Kochia scoparia) [6]; 125 g ai/ha, 0 to 100 scale)
20: Plant response rating, Ryegrass, Italian ([1]; 125 g ai/ha, 0 to 100 scale) | Barnyardgrass plant response rating [2, 16] | Plant response rating, Ragweed ([11]; 125 g ai/ha)
10: Plant response rating, Wheat ([8]; 125 g ai/ha) | Plant response rating, Corn (corn (Zea mays); 125 g ai/ha) | Plant response rating, Barnyardgrass ([10]; 31 g ai/ha) | Plant response rating, Foxtail, Giant ([12]; 31 g ai/ha) | Plant response rating, Blackgrass ([14]; 31 g ai/ha)
40: Plant response rating, Blackgrass ([14]; 125 g ai/ha)
70: Plant response rating, Barnyardgrass ([2]; 125 g ai/ha, 0 to 100 scale) | Plant response rating, Galium ([7]; 31 g ai/ha) | Plant response rating, Kochia (kochia (Kochia scoparia) [15]; 31 g ai/ha)
30: Pigweed plant response rating [5, 16] | Kochia plant response rating (kochia (Kochia scoparia) [6]; [16])
0: Ryegrass, Italian plant response rating [1, 16] | Ragweed plant response rating [3, 16] | Plant response rating, Ragweed ([3]; 125 g ai/ha, 0 to 100 scale) | Plant response rating, Wheat ([8]; 31 g ai/ha) | Plant response rating, Corn (corn (Zea mays); 31 g ai/ha) | Plant response rating, Ryegrass, Italian ([9]; 31 g ai/ha) | Plant response rating, Ragweed ([11]; 31 g ai/ha)
50: Plant response rating, Ryegrass, Italian ([9]; 125 g ai/ha) | Plant response rating, Pigweed ([13]; 31 g ai/ha)
100: Plant response rating, Foxtail, Giant ([4]; 125 g ai/ha, 0 to 100 scale) | Plant response rating, Galium ([7]; 125 g ai/ha) | Plant response rating, Barnyardgrass ([10]; 125 g ai/ha) | Plant response rating, Kochia (kochia (Kochia scoparia) [15]; 125 g ai/ha)
90: Plant response rating, Pigweed ([5]; 125 g ai/ha, 0 to 100 scale) | Plant response rating, Pigweed ([13]; 125 g ai/ha)
60: Foxtail, Giant plant response rating [4, 16] | Plant response rating, Foxtail, Giant ([12]; 125 g ai/ha)

N#Cc1cccc(Oc2ncc(Br)cn2)c1Oc1cccnc1 [Compound 7]
0%: pest or weed control at 31 g/ha ([1]; Lolium multiflorum, pre-emergence, 240 h, 31 g ai/ha, 0 to 100 scale (0 no effect, 100 complete control), read-out: Ryegrass, Italian plant response rating) | pest or weed control at 125 g/ha ([1]; Lolium multiflorum, pre-emergence, 240 h, 125 g ai/ha, 0 to 100 scale, read-out: Plant response rating, Ryegrass, Italian) | pest or weed control at 31 g/ha ([2]; Echinochloa crus-galli, pre-emergence, 240 h, 31 g ai/ha, 0 to 100 scale (0 no effect, 100 complete control), read-out: Barnyardgrass plant response rating) | pest or weed control at 125 g/ha ([2]; Echinochloa crus-galli, pre-emergence, 240 h, 125 g ai/ha, 0 to 100 scale, read-out: Plant response rating, Barnyardgrass) | pest or weed control at 31 g/ha ([3]; Ambrosia artemisiifolia, pre-emergence, 240 h, 31 g ai/ha, 0 to 100 scale (0 no effect, 100 complete control), read-out: Ragweed plant response rating) | pest or weed control at 125 g/ha ([3]; Ambrosia artemisiifolia, pre-emergence, 240 h, 125 g ai/ha, 0 to 100 scale, read-out: Plant response rating, Ragweed) | pest or weed control at 31 g/ha ([4]; Setaria faberi, pre-emergence, 240 h, 31 g ai/ha, 0 to 100 scale (0 no effect, 100 complete control), read-out: Foxtail, Giant plant response rating) | pest or weed control at 125 g/ha ([4]; Setaria faberi, pre-emergence, 240 h, 125 g ai/ha, 0 to 100 scale, read-out: Plant response rating, Foxtail, Giant) | pest or weed control at 31 g/ha ([5]; Amaranthus retroflexus, pre-emergence, 240 h, 31 g ai/ha, 0 to 100 scale (0 no effect, 100 complete control), read-out: Pigweed plant response rating) | pest or weed control at 125 g/ha ([5]; Amaranthus retroflexus, pre-emergence, 240 h, 125 g ai/ha, 0 to 100 scale, read-out: Plant response rating, Pigweed) | pest or weed control at 31 g/ha (kochia (Kochia scoparia) [6]; Bassia scoparia, pre-emergence, 240 h, 31 g ai/ha, 0 to 100 scale (0 no effect, 100 complete control), read-out: Kochia plant response rating) | pest or weed control at 125 g/ha (kochia (Kochia scoparia) [6]; Bassia scoparia, pre-emergence, 240 h, 125 g ai/ha, 0 to 100 scale, read-out: Plant response rating, Kochia) | plant injury at 31 g/ha ([8]; Triticum aestivum, post-emergence, 240 h, 31 g ai/ha, read-out: Plant response rating, Wheat) | plant injury at 125 g/ha ([8]; Triticum aestivum, post-emergence, 240 h, 125 g ai/ha, read-out: Plant response rating, Wheat) | Corn plant response rating (crop injury, 0 = no effect, 100 = complete kill) at 31 g/ha (corn (Zea mays); Zea mays, post-emergence, 240 h, 31 g ai/ha) | pest or weed control at 31 g/ha ([9]; Lolium multiflorum, post-emergence, 240 h, 31 g ai/ha, read-out: Plant response rating, Ryegrass, Italian) | pest or weed control at 125 g/ha ([9]; Lolium multiflorum, post-emergence, 240 h, 125 g ai/ha, read-out: Plant response rating, Ryegrass, Italian) | pest or weed control at 31 g/ha ([10]; Echinochloa crus-galli, post-emergence, 240 h, 31 g ai/ha, read-out: Plant response rating, Barnyardgrass) | pest or weed control at 125 g/ha ([10]; Echinochloa crus-galli, post-emergence, 240 h, 125 g ai/ha, read-out: Plant response rating, Barnyardgrass) | pest or weed control at 31 g/ha ([11]; Ambrosia artemisiifolia, post-emergence, 240 h, 31 g ai/ha, read-out: Plant response rating, Ragweed) | pest or weed control at 125 g/ha ([11]; Ambrosia artemisiifolia, post-emergence, 240 h, 125 g ai/ha, read-out: Plant response rating, Ragweed) | pest or weed control at 31 g/ha ([12]; Setaria faberi, post-emergence, 240 h, 31 g ai/ha, read-out: Plant response rating, Foxtail, Giant) | pest or weed control at 125 g/ha ([12]; Setaria faberi, post-emergence, 240 h, 125 g ai/ha, read-out: Plant response rating, Foxtail, Giant) | pest or weed control at 31 g/ha ([14]; Alopecurus myosuroides, post-emergence, 240 h, 31 g ai/ha, read-out: Plant response rating, Blackgrass) | pest or weed control at 125 g/ha ([14]; Alopecurus myosuroides, post-emergence, 240 h, 125 g ai/ha, read-out: Plant response rating, Blackgrass) | pest or weed control at 31 g/ha (kochia (Kochia scoparia) [15]; Bassia scoparia, post-emergence, 240 h, 31 g ai/ha, read-out: Plant response rating, Kochia)
10%: pest or weed control at 31 g/ha ([7]; Galium, post-emergence, 240 h, 31 g ai/ha, read-out: Plant response rating, Galium) | pest or weed control at 125 g/ha ([7]; Galium, post-emergence, 240 h, 125 g ai/ha, read-out: Plant response rating, Galium) | Corn plant response rating (crop injury, 0 = no effect, 100 = complete kill) at 125 g/ha (corn (Zea mays); Zea mays, post-emergence, 240 h, 125 g ai/ha) | pest or weed control at 31 g/ha ([13]; Amaranthus retroflexus, post-emergence, 240 h, 31 g ai/ha, read-out: Plant response rating, Pigweed) | pest or weed control at 125 g/ha (kochia (Kochia scoparia) [15]; Bassia scoparia, post-emergence, 240 h, 125 g ai/ha, read-out: Plant response rating, Kochia)
20%: pest or weed control at 125 g/ha ([13]; Amaranthus retroflexus, post-emergence, 240 h, 125 g ai/ha, read-out: Plant response rating, Pigweed)
